Laboratory results from ChEMBL document CHEMBL1828590 (J Med Chem, 2011).

Legend:
[1] = target: T1, Histone deacetylase 1 (Homo sapiens, UniProt Q13547)
Description: Inhibition of full length recombinant HDAC1 using Fluor de Lys as substrate by fluorescence assay

[2] = system: COLO 205; assay: Antiproliferative activity against human COLO205 cells after 96 hrs by celltiter 96 assay; type: functional, cell-based; conditions: COLO 205, 96 h
[3] = system: HCT-116; assay: Antiproliferative activity against human HCT116 cells after 96 hrs by celltiter 96 assay; type: functional, cell-based; conditions: HCT-116, 96 h
[4] = system: PC-3; assay: Antiproliferative activity against human PC3 cells after 96 hrs by celltiter 96 assay; type: functional, cell-based; conditions: PC-3, 96 h
[5] = system: A2780; assay: Antiproliferative activity against human A2780 cells after 96 hrs by celltiter 96 assay; type: functional, cell-based; conditions: A2780, 96 h
[6] = target: T2, Protein deacetylase HDAC6 (Homo sapiens, UniProt Q9UBN7)
T2 sequence (Q9UBN7 whole entry): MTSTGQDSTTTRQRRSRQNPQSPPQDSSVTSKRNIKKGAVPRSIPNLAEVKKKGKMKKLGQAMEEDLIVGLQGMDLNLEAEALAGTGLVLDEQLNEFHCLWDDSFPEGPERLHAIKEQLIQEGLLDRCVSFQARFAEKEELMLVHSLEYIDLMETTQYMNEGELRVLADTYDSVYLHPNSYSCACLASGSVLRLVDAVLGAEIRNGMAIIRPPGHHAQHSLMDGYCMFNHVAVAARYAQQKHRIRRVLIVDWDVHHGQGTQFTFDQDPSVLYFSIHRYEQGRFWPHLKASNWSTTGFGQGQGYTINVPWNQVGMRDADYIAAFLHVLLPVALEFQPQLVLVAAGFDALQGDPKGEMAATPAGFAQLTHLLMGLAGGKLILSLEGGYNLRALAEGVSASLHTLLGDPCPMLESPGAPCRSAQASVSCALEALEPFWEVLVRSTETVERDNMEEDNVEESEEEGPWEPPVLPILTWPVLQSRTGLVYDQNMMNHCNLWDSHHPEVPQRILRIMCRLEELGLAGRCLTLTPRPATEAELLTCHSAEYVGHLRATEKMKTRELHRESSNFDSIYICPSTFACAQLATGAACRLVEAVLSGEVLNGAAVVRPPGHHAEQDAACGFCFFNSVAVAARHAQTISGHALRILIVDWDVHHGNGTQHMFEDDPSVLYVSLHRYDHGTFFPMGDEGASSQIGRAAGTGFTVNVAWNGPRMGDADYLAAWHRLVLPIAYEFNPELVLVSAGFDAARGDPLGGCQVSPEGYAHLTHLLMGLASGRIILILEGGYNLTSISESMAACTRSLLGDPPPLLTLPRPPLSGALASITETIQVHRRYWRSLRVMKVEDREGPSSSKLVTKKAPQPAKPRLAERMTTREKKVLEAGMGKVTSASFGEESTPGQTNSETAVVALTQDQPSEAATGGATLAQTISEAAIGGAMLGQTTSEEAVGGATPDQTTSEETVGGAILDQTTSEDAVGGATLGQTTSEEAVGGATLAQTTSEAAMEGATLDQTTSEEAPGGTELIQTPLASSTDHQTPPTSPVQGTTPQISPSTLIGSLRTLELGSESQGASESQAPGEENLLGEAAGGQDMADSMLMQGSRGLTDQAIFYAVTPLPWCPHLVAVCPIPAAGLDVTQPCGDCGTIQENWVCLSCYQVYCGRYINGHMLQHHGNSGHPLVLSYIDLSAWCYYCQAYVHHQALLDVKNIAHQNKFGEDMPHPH
Description: Competitive inhibition of HDAC6 using KI-104 as substrate by fluorescence assay

[7] = target: Histone deacetylase 9 (Homo sapiens, UniProt Q9UKV0)
Description: Competitive inhibition of HDAC9 using KI-104 as substrate by fluorescence assay

[8] = target: Histone deacetylase 5 (Homo sapiens, UniProt Q9UQL6)
Description: Competitive inhibition of HDAC5 using KI-104 as substrate by fluorescence assay

[9] = target: T3, Histone deacetylase 8 (Homo sapiens, UniProt Q9BY41)
T3 sequence (Q9BY41 whole entry): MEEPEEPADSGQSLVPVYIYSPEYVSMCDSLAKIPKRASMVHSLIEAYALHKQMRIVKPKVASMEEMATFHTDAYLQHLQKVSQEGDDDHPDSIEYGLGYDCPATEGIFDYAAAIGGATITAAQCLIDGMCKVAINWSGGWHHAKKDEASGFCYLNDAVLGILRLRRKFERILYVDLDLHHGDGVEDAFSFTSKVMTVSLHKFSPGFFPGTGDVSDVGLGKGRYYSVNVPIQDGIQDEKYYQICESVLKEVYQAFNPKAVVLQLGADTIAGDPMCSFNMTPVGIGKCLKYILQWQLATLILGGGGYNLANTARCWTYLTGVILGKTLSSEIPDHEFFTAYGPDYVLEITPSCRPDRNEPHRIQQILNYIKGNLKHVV
Description: Competitive inhibition of HDAC8 using KI-104 as substrate by fluorescence assay

[10] = target: T4, Histone deacetylase 11 (Homo sapiens, UniProt Q96DB2)
T4 sequence (Q96DB2 whole entry): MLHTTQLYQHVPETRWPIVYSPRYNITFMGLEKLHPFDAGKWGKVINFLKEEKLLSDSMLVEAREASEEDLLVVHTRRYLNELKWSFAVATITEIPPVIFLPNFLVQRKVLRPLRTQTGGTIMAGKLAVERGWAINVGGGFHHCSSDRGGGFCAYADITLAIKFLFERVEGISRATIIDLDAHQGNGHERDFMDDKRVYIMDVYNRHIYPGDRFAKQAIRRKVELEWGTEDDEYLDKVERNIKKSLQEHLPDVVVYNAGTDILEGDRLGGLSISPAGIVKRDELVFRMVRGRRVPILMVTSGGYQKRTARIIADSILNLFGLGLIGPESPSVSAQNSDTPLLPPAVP
Description: Competitive inhibition of HDAC11 using KI-104 as substrate by fluorescence assay

[11] = target: Histone deacetylase 2 (Homo sapiens, UniProt Q92769)
Description: Competitive inhibition of HDAC2 using KI-104 as substrate by fluorescence assay

[12] = target: T1, Histone deacetylase 1; remark: listed apart in the source
Description: Competitive inhibition of HDAC1 using KI-104 as substrate by fluorescence assay

[13] = target: Histone deacetylase 4 (Homo sapiens, UniProt P56524)
Description: Competitive inhibition of HDAC4 using KI-104 as substrate by fluorescence assay

[14] = target: T5, Polyamine deacetylase HDAC10 (Homo sapiens, UniProt Q969S8)
T5 sequence (Q969S8 whole entry): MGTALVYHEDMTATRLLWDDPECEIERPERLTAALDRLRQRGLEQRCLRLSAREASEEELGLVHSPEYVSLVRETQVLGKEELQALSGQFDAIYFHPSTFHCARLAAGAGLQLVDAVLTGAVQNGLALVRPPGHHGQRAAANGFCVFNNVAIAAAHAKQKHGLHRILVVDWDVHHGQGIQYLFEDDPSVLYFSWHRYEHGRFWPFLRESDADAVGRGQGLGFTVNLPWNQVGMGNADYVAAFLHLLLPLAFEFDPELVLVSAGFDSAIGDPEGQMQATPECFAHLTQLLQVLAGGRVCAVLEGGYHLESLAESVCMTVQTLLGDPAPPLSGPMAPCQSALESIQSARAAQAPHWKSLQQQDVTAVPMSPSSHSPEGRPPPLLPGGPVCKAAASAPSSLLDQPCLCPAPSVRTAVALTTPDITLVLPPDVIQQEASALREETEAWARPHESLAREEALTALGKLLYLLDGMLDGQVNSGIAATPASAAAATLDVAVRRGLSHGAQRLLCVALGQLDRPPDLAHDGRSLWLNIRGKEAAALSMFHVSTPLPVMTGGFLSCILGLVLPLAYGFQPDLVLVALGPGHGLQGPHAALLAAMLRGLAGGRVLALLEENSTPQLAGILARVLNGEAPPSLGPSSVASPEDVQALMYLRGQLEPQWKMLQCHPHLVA
Description: Competitive inhibition of HDAC10 using KI-104 as substrate by fluorescence assay

[15] = target: Histone deacetylase 3 (Homo sapiens, UniProt O15379)
Description: Competitive inhibition of HDAC3 using KI-104 as substrate by fluorescence assay

[16] = Half life in human liver microsomes; type: ADME, Microsome
[17] = Half life in mouse liver microsomes; type: ADME, Microsome; conditions: liver microsomes

T1 sequence (Q13547 whole entry): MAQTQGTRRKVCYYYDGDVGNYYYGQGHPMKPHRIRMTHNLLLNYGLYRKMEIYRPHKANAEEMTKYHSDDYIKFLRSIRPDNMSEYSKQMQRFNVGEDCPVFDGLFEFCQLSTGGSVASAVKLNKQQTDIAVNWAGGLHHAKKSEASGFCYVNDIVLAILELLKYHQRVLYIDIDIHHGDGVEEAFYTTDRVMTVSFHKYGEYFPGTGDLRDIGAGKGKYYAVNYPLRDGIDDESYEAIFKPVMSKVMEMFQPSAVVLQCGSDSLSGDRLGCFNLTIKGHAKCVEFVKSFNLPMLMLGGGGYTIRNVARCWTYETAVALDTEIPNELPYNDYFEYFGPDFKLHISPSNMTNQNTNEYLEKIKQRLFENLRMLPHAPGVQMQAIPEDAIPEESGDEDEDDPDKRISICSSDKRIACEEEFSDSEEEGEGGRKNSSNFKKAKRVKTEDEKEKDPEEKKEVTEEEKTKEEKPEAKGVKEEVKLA
Sequence of Histone deacetylase 9 (Q9UKV0 whole entry): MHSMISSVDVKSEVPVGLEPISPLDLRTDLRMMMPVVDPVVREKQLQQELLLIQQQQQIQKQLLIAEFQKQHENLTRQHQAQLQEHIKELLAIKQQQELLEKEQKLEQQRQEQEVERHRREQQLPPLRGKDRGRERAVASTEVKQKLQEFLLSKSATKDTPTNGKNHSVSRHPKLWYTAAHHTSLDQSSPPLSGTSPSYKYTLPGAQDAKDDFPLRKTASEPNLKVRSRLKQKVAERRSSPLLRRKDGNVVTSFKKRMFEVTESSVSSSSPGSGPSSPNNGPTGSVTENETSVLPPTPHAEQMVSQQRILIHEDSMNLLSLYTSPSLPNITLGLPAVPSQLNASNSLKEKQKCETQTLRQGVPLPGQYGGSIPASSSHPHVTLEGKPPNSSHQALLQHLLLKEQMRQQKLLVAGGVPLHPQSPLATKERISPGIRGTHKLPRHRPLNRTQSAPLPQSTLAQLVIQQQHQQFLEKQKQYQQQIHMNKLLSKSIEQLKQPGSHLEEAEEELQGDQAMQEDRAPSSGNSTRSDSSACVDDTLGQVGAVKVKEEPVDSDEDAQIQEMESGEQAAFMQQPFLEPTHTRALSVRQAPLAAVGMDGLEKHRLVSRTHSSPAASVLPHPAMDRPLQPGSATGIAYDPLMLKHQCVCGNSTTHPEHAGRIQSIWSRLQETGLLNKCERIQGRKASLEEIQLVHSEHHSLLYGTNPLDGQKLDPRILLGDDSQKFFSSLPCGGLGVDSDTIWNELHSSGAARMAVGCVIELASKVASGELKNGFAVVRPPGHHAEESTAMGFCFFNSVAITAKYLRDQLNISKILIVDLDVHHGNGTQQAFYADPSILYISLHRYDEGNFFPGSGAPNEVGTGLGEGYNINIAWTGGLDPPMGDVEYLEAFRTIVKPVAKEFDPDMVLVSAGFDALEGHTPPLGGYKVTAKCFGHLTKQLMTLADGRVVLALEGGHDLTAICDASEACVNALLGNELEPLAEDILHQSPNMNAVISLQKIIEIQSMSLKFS
Sequence of Histone deacetylase 3 (O15379 whole entry): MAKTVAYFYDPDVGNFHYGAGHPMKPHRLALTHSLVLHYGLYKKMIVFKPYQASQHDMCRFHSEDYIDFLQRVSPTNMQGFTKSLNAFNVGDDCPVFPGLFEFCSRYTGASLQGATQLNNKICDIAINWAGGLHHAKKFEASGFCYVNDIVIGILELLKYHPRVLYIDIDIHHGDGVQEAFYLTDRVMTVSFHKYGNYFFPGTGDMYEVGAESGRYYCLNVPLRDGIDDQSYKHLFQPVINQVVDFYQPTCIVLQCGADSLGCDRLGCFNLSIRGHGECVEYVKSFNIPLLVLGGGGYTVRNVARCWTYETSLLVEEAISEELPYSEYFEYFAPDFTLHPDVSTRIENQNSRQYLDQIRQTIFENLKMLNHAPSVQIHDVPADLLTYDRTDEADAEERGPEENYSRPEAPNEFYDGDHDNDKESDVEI
Sequence of Histone deacetylase 5 (Q9UQL6 whole entry): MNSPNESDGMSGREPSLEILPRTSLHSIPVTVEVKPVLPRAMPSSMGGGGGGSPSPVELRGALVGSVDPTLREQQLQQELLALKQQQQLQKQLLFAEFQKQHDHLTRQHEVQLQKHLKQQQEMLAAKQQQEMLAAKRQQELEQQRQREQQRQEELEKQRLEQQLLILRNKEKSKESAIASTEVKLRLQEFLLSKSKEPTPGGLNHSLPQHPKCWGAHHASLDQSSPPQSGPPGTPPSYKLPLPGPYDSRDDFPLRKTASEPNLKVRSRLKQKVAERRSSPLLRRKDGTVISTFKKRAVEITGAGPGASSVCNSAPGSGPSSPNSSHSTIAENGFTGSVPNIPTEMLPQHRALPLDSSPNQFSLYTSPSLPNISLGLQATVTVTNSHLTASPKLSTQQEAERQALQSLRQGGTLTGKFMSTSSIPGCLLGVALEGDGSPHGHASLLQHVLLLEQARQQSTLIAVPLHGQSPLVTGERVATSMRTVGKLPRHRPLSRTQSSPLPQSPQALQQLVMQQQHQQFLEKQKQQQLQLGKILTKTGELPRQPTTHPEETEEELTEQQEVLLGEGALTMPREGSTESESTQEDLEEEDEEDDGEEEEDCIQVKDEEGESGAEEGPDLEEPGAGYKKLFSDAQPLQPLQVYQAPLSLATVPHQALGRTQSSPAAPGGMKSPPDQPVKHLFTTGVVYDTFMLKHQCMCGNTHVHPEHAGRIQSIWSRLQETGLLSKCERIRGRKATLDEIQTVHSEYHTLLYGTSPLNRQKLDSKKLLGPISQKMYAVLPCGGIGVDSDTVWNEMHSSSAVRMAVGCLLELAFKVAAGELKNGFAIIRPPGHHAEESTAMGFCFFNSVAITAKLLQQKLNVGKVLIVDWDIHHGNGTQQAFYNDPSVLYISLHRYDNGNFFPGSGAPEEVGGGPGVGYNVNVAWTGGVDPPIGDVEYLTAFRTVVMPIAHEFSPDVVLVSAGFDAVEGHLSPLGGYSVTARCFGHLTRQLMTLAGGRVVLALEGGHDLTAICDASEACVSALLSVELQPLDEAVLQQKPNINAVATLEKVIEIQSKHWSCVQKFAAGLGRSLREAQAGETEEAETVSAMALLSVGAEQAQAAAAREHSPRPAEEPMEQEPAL
Sequence of Histone deacetylase 4 (P56524 whole entry): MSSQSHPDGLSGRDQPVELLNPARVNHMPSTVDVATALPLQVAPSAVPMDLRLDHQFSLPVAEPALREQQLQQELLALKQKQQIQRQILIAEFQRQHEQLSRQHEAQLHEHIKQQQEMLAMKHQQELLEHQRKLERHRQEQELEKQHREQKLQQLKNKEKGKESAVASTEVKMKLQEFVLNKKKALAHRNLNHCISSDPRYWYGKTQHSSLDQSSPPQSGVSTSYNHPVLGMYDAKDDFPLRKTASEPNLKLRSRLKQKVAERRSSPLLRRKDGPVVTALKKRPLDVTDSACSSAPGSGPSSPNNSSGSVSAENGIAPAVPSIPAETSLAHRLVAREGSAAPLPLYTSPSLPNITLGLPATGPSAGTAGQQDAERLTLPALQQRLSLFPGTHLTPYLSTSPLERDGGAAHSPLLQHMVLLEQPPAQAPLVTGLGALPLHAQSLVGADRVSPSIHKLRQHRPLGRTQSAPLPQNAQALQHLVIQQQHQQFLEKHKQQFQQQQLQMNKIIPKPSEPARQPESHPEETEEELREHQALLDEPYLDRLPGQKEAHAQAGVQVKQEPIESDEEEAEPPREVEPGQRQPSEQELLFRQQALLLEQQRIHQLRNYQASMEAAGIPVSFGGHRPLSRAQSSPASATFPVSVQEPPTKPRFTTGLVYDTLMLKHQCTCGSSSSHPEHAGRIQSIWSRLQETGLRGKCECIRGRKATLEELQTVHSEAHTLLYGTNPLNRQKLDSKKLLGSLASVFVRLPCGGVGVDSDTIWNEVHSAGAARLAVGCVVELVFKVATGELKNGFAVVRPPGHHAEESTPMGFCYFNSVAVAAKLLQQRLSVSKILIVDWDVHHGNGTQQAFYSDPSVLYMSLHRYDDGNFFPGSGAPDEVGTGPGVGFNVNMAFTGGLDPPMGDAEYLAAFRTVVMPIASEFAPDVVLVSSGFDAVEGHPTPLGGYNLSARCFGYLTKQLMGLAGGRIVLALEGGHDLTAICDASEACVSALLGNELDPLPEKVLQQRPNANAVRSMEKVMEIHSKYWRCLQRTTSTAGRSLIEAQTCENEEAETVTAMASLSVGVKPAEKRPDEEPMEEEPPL
Sequence of Histone deacetylase 2 (Q92769 whole entry): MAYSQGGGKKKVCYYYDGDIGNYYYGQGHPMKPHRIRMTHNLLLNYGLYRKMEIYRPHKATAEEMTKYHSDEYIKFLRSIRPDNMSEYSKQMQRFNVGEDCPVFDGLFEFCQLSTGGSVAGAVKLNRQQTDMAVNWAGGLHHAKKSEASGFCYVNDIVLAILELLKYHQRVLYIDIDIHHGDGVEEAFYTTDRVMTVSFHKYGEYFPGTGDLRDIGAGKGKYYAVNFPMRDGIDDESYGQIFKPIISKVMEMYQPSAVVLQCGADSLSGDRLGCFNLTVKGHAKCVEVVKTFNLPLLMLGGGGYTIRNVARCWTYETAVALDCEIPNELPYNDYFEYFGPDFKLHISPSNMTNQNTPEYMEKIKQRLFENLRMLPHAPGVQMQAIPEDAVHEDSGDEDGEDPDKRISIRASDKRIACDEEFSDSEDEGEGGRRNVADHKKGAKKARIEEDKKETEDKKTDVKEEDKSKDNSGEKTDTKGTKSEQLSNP

| IC50 [1] | IC50 [2] | SMILES | other results |
| --- | --- | --- | --- |
| 29 nM | 550 nM | CCCCCCc1nc2cc(/C=C/C(=O)NO)ccc2n1CCNC |  |
| 105 nM | 1340 nM | CCCCCCc1nc2cc(/C=C/C(=O)NO)ccc2n1C1CCCNC1 (stereo not given) |  |
| 32 nM | 390 nM | CCN(CC)CCn1c(CC2CC3CCC2C3)nc2cc(/C=C/C(=O)NO)ccc21 (stereo not given) | IC50 [3]: 330 nM; IC50 [4]: 530 nM; IC50 [5]: 210 nM |
| 30 nM | 280 nM | CCCCCc1nc2cc(/C=C/C(=O)NO)ccc2n1CCNC(C)C | Ki [6]: 227 nM; IC50 [3]: 260 nM; Ki [7]: 4.4 nM; Ki [8]: 5.6 nM; Ki [9]: 94 nM; IC50 [4]: 120 nM; Ki [10]: 4.2 nM; Ki [11]: 14 nM; Ki [12]: 10 nM; Ki [13]: 3.6 nM; IC50 [5]: 230 nM; Ki [14]: 19 nM; Ki [15]: 10 nM |
| 335 nM | 1870 nM | CCCCc1nc2cc(/C=C/C(=O)NO)ccc2n1CCN(C(C)C)C(C)C |  |
| 575 nM | 6810 nM | CCN(CC)CCc1nc2cc(/C=C/C(=O)NO)ccc2n1CCC(C)C |  |
| 175 nM | 690 nM | CN(C)CCn1c(C2CC2c2ccccc2)nc2cc(/C=C/C(=O)NO)ccc21 (stereo not given) |  |
| 92 nM | 810 nM | CCN(CC)CCn1c(CC(C)C)nc2cc(/C=C/C(=O)NO)ccc21 | IC50 [3]: 1300 nM; IC50 [4]: 950 nM; IC50 [5]: 1240 nM |
| 77 nM | 880 nM | CCCCc1nc2cc(/C=C/C(=O)NO)ccc2n1CCNCC | IC50 [3]: 1110 nM; IC50 [4]: 380 nM; IC50 [5]: 760 nM |
| 158 nM | 2100 nM | CCCCCc1nc2cc(/C=C/C(=O)NO)ccc2n1C1CCCN(C)C1 (stereo not given) |  |
| 37 nM | 150 nM | CC(Cc1nc2cc(/C=C/C(=O)NO)ccc2n1CC(C)(C)CN(C)C)CC(C)(C)C (stereo not given) | IC50 [3]: 410 nM; IC50 [4]: 310 nM; IC50 [5]: 230 nM |
|  | 1650 nM | CCCCc1nc2cc(/C=C/C(=O)NO)ccc2n1CCN(C)CC |  |
| 125 nM | 1090 nM | CCCCc1nc2cc(/C=C/C(=O)NO)ccc2n1C1CCN(C)C1 (stereo not given) |  |
|  |  | CCN(CC)CCn1c(CCc2ccccc2)nc2cc(/C=C/C(=O)NO)ccc21 | half-life [16]: ≥ 30 min; half-life [17]: 5 min |
| 150 nM | 2230 nM | CCCCc1nc2cc(/C=C/C(=O)NO)ccc2n1CC(C)(C)CN(C)C |  |
| 45 nM | 420 nM | CCCCCCc1nc2cc(/C=C/C(=O)NO)ccc2n1CCN(CC)CC |  |
| 84 nM | 4530 nM | NCCn1c(C2CC2c2ccccc2)nc2cc(/C=C/C(=O)NO)ccc21 (stereo not given) |  |
| 308 nM | 1730 nM | CC(C)c1nc2cc(/C=C/C(=O)NO)ccc2n1CC(C)(C)CN(C)C |  |
| 90 nM | 650 nM | CCCCc1nc2cc(/C=C/C(=O)NO)ccc2n1CCN(C)C |  |

| IC50 [1] | IC50 [2] | SMILES | other results |
| --- | --- | --- | --- |
| 15 nM | 230 nM | CCCCCCCCc1nc2cc(/C=C/C(=O)NO)ccc2n1CCNC |  |
|  | 7000 nM | CCCCc1nc2cc(/C=C/C(=O)NO)ccc2n1C1CCNCC1 |  |
| 45 nM | 540 nM | CCCCc1nc2cc(/C=C/C(=O)NO)ccc2n1CCN(C)C(C)C |  |
| 41 nM | 450 nM | CCCCCc1nc2cc(/C=C/C(=O)NO)ccc2n1CCN(C)CC |  |
| 41 nM | 1460 nM | CCCCCCc1nc2cc(/C=C/C(=O)NO)ccc2n1C1CCNC1 (stereo not given) |  |
| 53 nM | 620 nM | CC/C=C\CCc1nc2cc(/C=C/C(=O)NO)ccc2n1CC(C)(C)CN(C)C | IC50 [3]: 920 nM; IC50 [4]: 380 nM; IC50 [5]: 370 nM |
| 110 nM | 16400 nM | CCCCc1nc2cc(/C=C/C(=O)NO)ccc2n1C1CCNC1 (stereo not given) |  |
| 155 nM | 980 nM | CCCc1nc2cc(/C=C/C(=O)NO)ccc2n1CCN(CC)CC |  |
| 41 nM | 950 nM | CCCCCc1nc2cc(/C=C/C(=O)NO)ccc2n1CCNC |  |
| 421 nM | 2450 nM | CN(C)CC(C)(C)Cn1c(C2CCCCC2)nc2cc(/C=C/C(=O)NO)ccc21 |  |
| 190 nM | 4870 nM | CCCCc1nc2cc(/C=C/C(=O)NO)ccc2n1C1CCCNC1 (stereo not given) |  |
| 2490 nM | 6020 nM | CCCCc1nc2cc(/C=C/C(=O)NO)ccc2n1CCC(C)C |  |
| 165 nM | 2890 nM | CCCCc1nc2cc(/C=C/C(=O)NO)ccc2n1CCCNC(C)C |  |
| 175 nM | 2690 nM | CC(C)Cc1nc2cc(/C=C/C(=O)NO)ccc2n1CC(C)(C)CN(C)C |  |
| 22 nM | 540 nM | CCCCCCCCc1nc2cc(/C=C/C(=O)NO)ccc2n1CCN |  |
| 169 nM | 630 nM | CCN(CC)CCn1c(C2CC2c2ccccc2)nc2cc(/C=C/C(=O)NO)ccc21 (trans isomer) |  |
| 135 nM | 1190 nM | CCN(CC)CCn1c(CC(C)(C)C)nc2cc(/C=C/C(=O)NO)ccc21 |  |
| 23 nM | 140 nM | CCNCCn1c(CC(C)CC(C)(C)C)nc2cc(/C=C/C(=O)NO)ccc21 (stereo not given) | IC50 [3]: 270 nM; IC50 [4]: 100 nM; IC50 [5]: 140 nM |
| 27 nM | 420 nM | CCCCCc1nc2cc(/C=C/C(=O)NO)ccc2n1CCNCC |  |
